Assay in all cases: Apparent affinity (EC50) of energy transfer probes by titration onto live HEK293 cells expressing kinase/Nluc fusions (Table S1)
Common to all, as to format: binding

Assay [1] has as its target full-length kinase/Nluc fusion proteins (Homo sapiens, UniProt O14936). The conditions noted are these: CASK, Nluc N; read-out: Probe EC50.
For assay [2], the target named is full-length kinase/Nluc fusion proteins (Homo sapiens, UniProt O60285). The settings on record: NUAK1, Nluc N; read-out: Probe EC50.
Assay [3] addresses full-length kinase/Nluc fusion proteins (Homo sapiens, UniProt O75460). The conditions noted are these: ERN1, Nluc C; read-out: Probe EC50.
Assay [4] addresses full-length kinase/Nluc fusion proteins (Homo sapiens, UniProt P06213). The settings on record: INSR, Nluc C; read-out: Probe EC50.
In assay [5] the target is full-length kinase/Nluc fusion proteins (Homo sapiens, UniProt P07949). The conditions noted are these: RET, Nluc C; read-out: Probe EC50.
Assay [6] concerns the target full-length kinase/Nluc fusion proteins (Homo sapiens, UniProt P08069). The settings on record: IGF1R, Nluc C; read-out: Probe EC50.
For assay [7], the target named is full-length kinase/Nluc fusion proteins (Homo sapiens, UniProt P17612). The settings on record: PRKACA, Nluc C; read-out: Probe EC50.
Assay [8] has as its target full-length kinase/Nluc fusion proteins (Homo sapiens, UniProt P21802). The conditions noted are these: FGFR2, Nluc C; read-out: Probe EC50.
Assay [9] concerns the target full-length kinase/Nluc fusion proteins (Homo sapiens, UniProt P31152). The settings on record: MAPK4, Nluc N; read-out: Probe EC50.
The target in assay [10] is full-length kinase/Nluc fusion proteins (Homo sapiens, UniProt P51812). The conditions noted are these: RPS6KA3 (NP_004577), Nluc orientation N; read-out: Probe EC50.
The target of assay [11] is full-length kinase/Nluc fusion proteins (Homo sapiens, UniProt P51955). The settings on record: NEK2, Nluc N; read-out: Probe EC50.
Assay [12] concerns the target full-length kinase/Nluc fusion proteins (Homo sapiens, UniProt P53667). The settings on record: LIMK1, Nluc C; read-out: Probe EC50.
The target of assay [13] is full-length kinase/Nluc fusion proteins (Homo sapiens, UniProt Q00535). The conditions noted are these: CDK5, Nluc C; read-out: Probe EC50.
The target of assay [14] is full-length kinase/Nluc fusion proteins (Homo sapiens, UniProt Q13470). The conditions noted are these: TNK1 (NP_003976), Nluc orientation N; read-out: Probe EC50.
The target in assay [15] is full-length kinase/Nluc fusion proteins (Homo sapiens, UniProt Q14680). The conditions noted are these: MELK, Nluc N; read-out: Probe EC50.
Assay [16] has as its target full-length kinase/Nluc fusion proteins (Homo sapiens, UniProt Q16584). The settings on record: MAP3K11, Nluc N; read-out: Probe EC50.
Assay [17] deals with full-length kinase/Nluc fusion proteins (Homo sapiens, UniProt Q8TD19). The settings on record: NEK9, Nluc N; read-out: Probe EC50.
For assay [18], the target named is full-length kinase/Nluc fusion proteins (Homo sapiens, UniProt Q96L34). The conditions noted are these: MARK4, Nluc N; read-out: Probe EC50.
For assay [19], the target named is full-length kinase/Nluc fusion proteins (Homo sapiens, UniProt Q96PY6). The settings on record: NEK1, Nluc N; read-out: Probe EC50.
In assay [20] the target is full-length kinase/Nluc fusion proteins (Homo sapiens, UniProt Q9BYT3). The conditions noted are these: STK33 (NP_001275990), Nluc orientation N; read-out: Probe EC50.
Assay [21] deals with full-length kinase/Nluc fusion proteins (Homo sapiens, UniProt Q9HAZ1). The conditions noted are these: CLK4, Nluc C; read-out: Probe EC50.
The target in assay [22] is full-length kinase/Nluc fusion proteins (Homo sapiens, UniProt Q9NRM7). The conditions noted are these: LATS2, Nluc C; read-out: Probe EC50.
The target in assay [23] is full-length kinase/Nluc fusion proteins (Homo sapiens, UniProt Q9NSY1). The conditions noted are these: BMP2K, Nluc N; read-out: Probe EC50.
For assay [24], the target named is full-length kinase/Nluc fusion proteins (Homo sapiens, UniProt Q9NWZ3). The conditions noted are these: IRAK4, Nluc C; read-out: Probe EC50.
Assay [25] concerns the target full-length kinase/Nluc fusion proteins (Homo sapiens, UniProt Q9NYY3). The settings on record: PLK2, Nluc N; read-out: Probe EC50.
Assay [26] addresses full-length kinase/Nluc fusion proteins (Homo sapiens, UniProt Q9P286). The settings on record: PAK7, Nluc C; read-out: Probe EC50.
Assay [27] has as its target full-length kinase/Nluc fusion proteins (Homo sapiens, UniProt Q9UK32). The conditions noted are these: RPS6KA6 (NP_055311), Nluc orientation N; read-out: Probe EC50.
Assay [28] concerns the target full-length kinase/Nluc fusion proteins (Homo sapiens, UniProt Q9Y463). The conditions noted are these: DYRK1B, Nluc N; read-out: Probe EC50.
Assay [29] deals with full-length kinase/Nluc fusion proteins (Homo sapiens, UniProt P09619). The conditions noted are these: PDGFRB, Nluc C; read-out: Probe EC50.
The target in assay [30] is full-length kinase/Nluc fusion proteins (Homo sapiens, UniProt P53671). The conditions noted are these: LIMK2, Nluc C; read-out: Probe EC50.
For assay [31], the target named is full-length kinase/Nluc fusion proteins (Homo sapiens, UniProt P54760). The settings on record: EPHB4, Nluc C; read-out: Probe EC50.
Assay [32] deals with full-length kinase/Nluc fusion proteins (Homo sapiens, UniProt Q13882). The conditions noted are these: PTK6, Nluc C; read-out: Probe EC50.

pEC50: −log10 of the molar value.

Chain of full-length kinase/Nluc fusion proteins (Homo sapiens, UniProt O60285) (O60285 whole entry, the tested form may be a part): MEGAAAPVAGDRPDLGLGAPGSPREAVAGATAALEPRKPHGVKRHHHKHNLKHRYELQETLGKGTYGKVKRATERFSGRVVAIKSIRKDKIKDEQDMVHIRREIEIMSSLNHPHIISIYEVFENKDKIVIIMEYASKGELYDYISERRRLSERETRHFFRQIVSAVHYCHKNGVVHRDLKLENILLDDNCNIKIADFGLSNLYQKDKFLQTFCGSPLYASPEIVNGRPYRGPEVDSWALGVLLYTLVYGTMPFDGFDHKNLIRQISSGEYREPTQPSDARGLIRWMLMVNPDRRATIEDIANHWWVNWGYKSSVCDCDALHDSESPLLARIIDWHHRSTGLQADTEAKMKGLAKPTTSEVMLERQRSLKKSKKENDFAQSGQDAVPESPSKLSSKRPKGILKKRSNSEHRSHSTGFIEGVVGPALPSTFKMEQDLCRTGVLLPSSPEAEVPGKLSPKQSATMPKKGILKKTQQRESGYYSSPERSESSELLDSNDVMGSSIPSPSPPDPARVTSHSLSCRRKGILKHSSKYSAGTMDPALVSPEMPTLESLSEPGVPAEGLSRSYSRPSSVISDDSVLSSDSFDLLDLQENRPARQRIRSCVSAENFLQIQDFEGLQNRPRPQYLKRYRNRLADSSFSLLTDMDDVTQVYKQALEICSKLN
Chain of full-length kinase/Nluc fusion proteins (Homo sapiens, UniProt Q9BYT3) (Q9BYT3 whole entry, the tested form may be a part): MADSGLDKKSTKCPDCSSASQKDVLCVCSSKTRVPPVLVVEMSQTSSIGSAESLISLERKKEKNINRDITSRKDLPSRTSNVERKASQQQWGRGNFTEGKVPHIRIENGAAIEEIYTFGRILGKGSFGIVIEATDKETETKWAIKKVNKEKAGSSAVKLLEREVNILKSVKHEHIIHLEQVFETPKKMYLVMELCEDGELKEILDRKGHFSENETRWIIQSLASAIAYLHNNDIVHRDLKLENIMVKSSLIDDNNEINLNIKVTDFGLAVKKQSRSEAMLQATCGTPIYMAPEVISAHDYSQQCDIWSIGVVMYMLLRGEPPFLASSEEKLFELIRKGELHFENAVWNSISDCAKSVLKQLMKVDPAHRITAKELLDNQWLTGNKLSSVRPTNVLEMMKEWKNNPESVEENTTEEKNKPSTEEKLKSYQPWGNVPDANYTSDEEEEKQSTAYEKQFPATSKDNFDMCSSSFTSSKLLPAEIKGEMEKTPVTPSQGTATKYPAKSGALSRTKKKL
Chain of full-length kinase/Nluc fusion proteins (Homo sapiens, UniProt Q96L34) (Q96L34 whole entry, the tested form may be a part): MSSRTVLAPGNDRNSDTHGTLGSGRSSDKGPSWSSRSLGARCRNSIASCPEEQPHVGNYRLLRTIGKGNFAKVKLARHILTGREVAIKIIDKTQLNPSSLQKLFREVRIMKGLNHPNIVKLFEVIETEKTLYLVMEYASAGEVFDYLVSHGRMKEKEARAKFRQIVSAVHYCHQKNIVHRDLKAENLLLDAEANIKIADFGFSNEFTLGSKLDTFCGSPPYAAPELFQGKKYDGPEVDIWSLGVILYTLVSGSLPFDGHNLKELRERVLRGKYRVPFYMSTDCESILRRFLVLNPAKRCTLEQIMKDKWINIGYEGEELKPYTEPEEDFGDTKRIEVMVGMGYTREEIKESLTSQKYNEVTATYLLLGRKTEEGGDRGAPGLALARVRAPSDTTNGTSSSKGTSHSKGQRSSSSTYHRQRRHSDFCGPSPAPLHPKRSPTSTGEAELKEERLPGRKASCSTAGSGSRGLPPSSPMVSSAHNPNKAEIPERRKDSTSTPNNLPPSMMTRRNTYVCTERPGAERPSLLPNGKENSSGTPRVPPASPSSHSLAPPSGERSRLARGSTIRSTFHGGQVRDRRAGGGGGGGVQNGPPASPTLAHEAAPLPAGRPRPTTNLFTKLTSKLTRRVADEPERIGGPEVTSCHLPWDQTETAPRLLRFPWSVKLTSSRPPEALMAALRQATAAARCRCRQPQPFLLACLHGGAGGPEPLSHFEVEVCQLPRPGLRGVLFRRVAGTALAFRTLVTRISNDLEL
Chain of full-length kinase/Nluc fusion proteins (Homo sapiens, UniProt Q13470) (Q13470 whole entry, the tested form may be a part): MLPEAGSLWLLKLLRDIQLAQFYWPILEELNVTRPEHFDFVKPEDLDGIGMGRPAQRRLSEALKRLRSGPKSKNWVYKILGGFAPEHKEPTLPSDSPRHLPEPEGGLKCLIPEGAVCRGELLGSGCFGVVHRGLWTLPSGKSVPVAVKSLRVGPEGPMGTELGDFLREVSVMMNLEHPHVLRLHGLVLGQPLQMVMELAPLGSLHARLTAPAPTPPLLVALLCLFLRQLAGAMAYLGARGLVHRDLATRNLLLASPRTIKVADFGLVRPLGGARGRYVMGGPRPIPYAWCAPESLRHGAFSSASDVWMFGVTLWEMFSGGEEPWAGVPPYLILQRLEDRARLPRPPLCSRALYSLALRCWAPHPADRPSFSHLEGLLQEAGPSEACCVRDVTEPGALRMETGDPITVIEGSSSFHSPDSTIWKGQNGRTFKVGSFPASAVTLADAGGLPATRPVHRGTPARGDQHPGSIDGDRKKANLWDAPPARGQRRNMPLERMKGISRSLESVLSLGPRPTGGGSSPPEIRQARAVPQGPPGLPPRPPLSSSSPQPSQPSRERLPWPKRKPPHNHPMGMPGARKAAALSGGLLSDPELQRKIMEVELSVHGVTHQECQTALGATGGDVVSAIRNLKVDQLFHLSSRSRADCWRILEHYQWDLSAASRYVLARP
Chain of full-length kinase/Nluc fusion proteins (Homo sapiens, UniProt Q9HAZ1) (Q9HAZ1 whole entry, the tested form may be a part): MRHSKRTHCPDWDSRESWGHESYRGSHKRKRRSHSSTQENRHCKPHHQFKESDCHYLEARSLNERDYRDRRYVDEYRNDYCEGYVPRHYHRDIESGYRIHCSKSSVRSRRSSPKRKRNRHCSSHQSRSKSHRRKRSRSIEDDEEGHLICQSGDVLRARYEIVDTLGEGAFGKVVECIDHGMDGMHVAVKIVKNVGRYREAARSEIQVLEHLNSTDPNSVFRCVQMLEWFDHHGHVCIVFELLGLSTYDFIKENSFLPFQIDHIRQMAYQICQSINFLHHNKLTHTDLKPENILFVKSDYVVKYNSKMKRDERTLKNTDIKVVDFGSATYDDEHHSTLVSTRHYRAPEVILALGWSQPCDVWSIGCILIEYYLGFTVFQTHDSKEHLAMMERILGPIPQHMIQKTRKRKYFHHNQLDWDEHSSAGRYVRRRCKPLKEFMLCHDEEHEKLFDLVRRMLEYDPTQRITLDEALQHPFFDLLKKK
Chain of full-length kinase/Nluc fusion proteins (Homo sapiens, UniProt Q9NYY3) (Q9NYY3 whole entry, the tested form may be a part): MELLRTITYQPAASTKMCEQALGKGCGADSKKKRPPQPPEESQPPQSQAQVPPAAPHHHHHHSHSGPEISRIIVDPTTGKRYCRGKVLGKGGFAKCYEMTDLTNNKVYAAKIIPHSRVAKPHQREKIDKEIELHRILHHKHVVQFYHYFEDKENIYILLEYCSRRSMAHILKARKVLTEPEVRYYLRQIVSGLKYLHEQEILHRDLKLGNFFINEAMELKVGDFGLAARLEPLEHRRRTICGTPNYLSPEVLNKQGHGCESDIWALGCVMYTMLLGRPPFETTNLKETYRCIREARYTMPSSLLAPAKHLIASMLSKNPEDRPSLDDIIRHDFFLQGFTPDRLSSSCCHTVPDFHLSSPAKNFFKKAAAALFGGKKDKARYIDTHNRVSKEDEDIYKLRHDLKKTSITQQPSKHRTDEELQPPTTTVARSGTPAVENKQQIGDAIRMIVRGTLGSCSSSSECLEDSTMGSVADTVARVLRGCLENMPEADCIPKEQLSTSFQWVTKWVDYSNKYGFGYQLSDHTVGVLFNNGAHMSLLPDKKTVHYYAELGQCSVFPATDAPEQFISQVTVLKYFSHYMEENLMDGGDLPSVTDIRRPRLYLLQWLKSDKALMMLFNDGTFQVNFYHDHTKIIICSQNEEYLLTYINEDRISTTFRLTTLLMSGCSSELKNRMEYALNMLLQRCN
Chain of full-length kinase/Nluc fusion proteins (Homo sapiens, UniProt P31152) (P31152 whole entry, the tested form may be a part): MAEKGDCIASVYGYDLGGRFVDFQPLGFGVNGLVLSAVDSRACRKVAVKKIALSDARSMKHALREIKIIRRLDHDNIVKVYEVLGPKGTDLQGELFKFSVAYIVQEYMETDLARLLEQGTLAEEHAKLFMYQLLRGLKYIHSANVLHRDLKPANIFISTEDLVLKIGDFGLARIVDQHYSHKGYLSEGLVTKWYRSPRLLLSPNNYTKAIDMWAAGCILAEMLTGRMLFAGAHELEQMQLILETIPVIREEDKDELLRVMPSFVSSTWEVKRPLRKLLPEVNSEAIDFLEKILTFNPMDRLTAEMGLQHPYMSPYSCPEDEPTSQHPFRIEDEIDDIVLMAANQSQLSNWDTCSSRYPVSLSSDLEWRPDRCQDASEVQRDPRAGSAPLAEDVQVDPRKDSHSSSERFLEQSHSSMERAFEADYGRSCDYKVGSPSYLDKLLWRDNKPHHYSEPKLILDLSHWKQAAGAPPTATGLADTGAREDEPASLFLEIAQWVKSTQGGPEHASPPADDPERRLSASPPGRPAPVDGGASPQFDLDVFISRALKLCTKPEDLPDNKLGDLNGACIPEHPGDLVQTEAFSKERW
Chain of full-length kinase/Nluc fusion proteins (Homo sapiens, UniProt Q14680) (Q14680 whole entry, the tested form may be a part): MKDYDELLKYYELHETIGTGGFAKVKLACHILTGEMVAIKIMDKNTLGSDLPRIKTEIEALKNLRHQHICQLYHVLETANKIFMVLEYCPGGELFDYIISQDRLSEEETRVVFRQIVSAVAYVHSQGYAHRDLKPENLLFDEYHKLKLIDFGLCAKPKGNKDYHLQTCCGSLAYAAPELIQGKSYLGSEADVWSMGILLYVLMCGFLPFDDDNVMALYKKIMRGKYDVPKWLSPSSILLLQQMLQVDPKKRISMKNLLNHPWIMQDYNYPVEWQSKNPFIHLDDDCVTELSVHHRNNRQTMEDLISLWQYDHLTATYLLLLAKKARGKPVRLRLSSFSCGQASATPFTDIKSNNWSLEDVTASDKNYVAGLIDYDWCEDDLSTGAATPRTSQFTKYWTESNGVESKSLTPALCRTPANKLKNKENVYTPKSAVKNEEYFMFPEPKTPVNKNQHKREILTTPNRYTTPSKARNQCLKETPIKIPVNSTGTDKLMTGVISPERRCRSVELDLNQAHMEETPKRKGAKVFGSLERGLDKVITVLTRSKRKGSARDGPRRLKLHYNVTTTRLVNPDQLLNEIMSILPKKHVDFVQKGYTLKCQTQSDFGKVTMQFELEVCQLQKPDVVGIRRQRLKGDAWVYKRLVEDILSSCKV

For orientation: pEC50 means the negative decadic logarithm of the EC50, by convention in mol/L. For `CNC(=O)c1ccccc1Nc1nc(Nc2ccc(N3CCN(C(=O)CCOCCOCCOCCOCCNC(=O)CCc4ccc5n4[B-](F)(F)[N+]4=C(c6ccc[nH]6)C=CC4=C5)CC3)cc2)ncc1Cl` [Energy Transfer Probe 5, 2-((2-((4-(4-(1-amino-3,6,9,12-tetraoxapentadecan-15-oyl)piperazin-1-yl)phenyl)amino)-5-chloropyrimidin-4-yl)amino)-N-methylbenzamide-NanoBRET 590], the pEC50 was < 6.00 in [1]; 7.00 in assay [2]; < 6.00 in [3]; < 6.00 in [4]; 6.30 in [5]; < 6.00 in assay [6]. The pEC50 was < 6.00 in assay [7]; 6.22 in assay [8]; < 6.00 in [9]; 6.70 in assay [10]; < 6.00 in assay [11]; < 6.00 in assay [12]. Further, the pEC50 was < 6.00 in assay [13]; 7.30 in [14]; < 6.00 in assay [15]; < 6.00 in assay [16]; < 6.00 in assay [17]; < 6.00 in [18]. Also, the negative-log EC50 (pEC50) was < 6.00 in assay [19]; 6.40 in assay [20]; 6.52 in assay [21]; 6.52 in [22]; < 6.00 in [23]; < 6.00 in [24]. The pEC50 in [25] is < 6.00; in assay [26] it was < 6.00; in assay [27], 6.40; in [28], < 6.00.

For the compound `Cc1nc(Nc2ncc(C(=O)Nc3c(C)cccc3Cl)s2)cc(N2CCN(CCOCCNC(=O)CCc3ccc4n3[B-](F)(F)[N+]3=C(c5ccc[nH]5)C=CC3=C4)CC2)n1` [Energy Transfer Probe 6, 2-((6-(4-(2-(2-aminoethoxy)ethyl)piperazin-1-yl)-2-methylpyrimidin-4-yl)amino)-N-(2-chloro-6-methylphenyl)thiazole-5-carboxamide-NanoBRET 590], the pEC50 is 6.70 in assay [29], < 6.00 in assay [30], 8.00 in assay [31] and 6.70 in assay [32].

For the origin of these results see publication PMC5814754, “Quantitative, Wide-Spectrum Kinase Profiling in Live Cells for Assessing the Effect of Cellular ATP on Target Engagement” (Cell Chemical Biology, 2018).
